According to paper PMC5992652, “Insight into the functional roles of Glu175 in the hyperthermostable xylanase XYL10C-ΔN through structural analysis and site-saturation mutagenesis” (Biotechnology for Biofuels, 2018):

Experiments:
XYL10C-ΔN = target: T1, XYL10C-ΔN (Bispora sp. MEY-1, UniProt D0QF43); experiment: HPAEC of hydrolysis products; type: biochemical; details: pH 4.5, 70 °C, 16 h, Na2HPO4-citric acid; products mainly xylose and xylobiose
T1 construct: 18-residue signal peptide and the next 66 N-terminal residues removed; pPIC9, Pichia pastoris GS115; deglycosylated with Endo Hf; two monomers in asymmetric unit

XYL10C = target: T2, XYL10C (Bispora sp. MEY-1, UniProt D0QF43); experiment: HPAEC of hydrolysis products; type: biochemical; details: pH 4.5, 70 °C, 16 h, Na2HPO4-citric acid; products mainly xylose and xylobiose
T2 construct: 18-residue signal peptide
T2 sequence (D0QF43 19-424): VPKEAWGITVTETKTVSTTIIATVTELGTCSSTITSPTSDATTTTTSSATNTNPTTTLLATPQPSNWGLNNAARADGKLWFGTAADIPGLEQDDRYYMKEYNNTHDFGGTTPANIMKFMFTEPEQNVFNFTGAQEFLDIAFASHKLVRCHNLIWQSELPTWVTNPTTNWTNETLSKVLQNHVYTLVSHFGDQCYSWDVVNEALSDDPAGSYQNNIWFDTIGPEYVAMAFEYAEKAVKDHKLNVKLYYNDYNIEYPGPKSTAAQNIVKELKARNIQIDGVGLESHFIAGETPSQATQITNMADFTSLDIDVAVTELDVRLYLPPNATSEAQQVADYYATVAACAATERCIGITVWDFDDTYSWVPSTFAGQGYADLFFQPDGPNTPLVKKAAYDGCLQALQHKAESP

Q: How did the “HPAEC of hydrolysis products” value (XYL10C-ΔN) turn out when `OC1OC[C@@H](O[C@@H]2OC[C@@H](O[C@@H]3OC[C@@H](O)[C@H](O)[C@H]3O)[C@H](O)[C@H]2O)[C@H](O)[C@H]1O` (stereo partly shown) [X3, xylotriose] was run?
A: Its value is “employed an endo-mode of action to cleave xylotriose, xylotetraose, xylopentaose, xylohexaose”.

Q: And the “HPAEC of hydrolysis products” value (XYL10C)?
A: The value was “employed an endo-mode of action to cleave xylotriose, xylotetraose, xylopentaose, xylohexaose”.

Q: With `OC1OC[C@@H](O[C@@H]2OC[C@@H](O[C@@H]3OC[C@@H](O[C@@H]4OC[C@@H](O[C@@H]5OC[C@@H](O[C@@H]6OC[C@@H](O)[C@H](O)[C@H]6O)[C@H](O)[C@H]5O)[C@H](O)[C@H]4O)[C@H](O)[C@H]3O)[C@H](O)[C@H]2O)[C@H](O)[C@H]1O` (stereo partly shown) [X6, xylohexaose] as the compound, how does the “HPAEC of hydrolysis products” value (XYL10C-ΔN) read?
A: The value was “employed an endo-mode of action to cleave xylotriose, xylotetraose, xylopentaose, xylohexaose”.

Q: What about the “HPAEC of hydrolysis products” value (XYL10C) of the same compound?
A: The value was “employed an endo-mode of action to cleave xylotriose, xylotetraose, xylopentaose, xylohexaose”.
